“And” between values parts separate entries of the source, which are not always exact repeats. Equal values may be shown once.
Columns and labels:
Type in all cases: in vivo, Wistar rat
female Wistar rats [1] = assay: Effect on spontaneous diuresis (TABLE 3); settings: 5 mg/kg oral; for Excreted sodium/potassium ratio: 12 h; for Potassium excretion / Sodium excretion: spontaneous diuresis
Method: These investigations were carried out on Wistar rats of both sexes, having a body weight which is specified in each case in the relative tables, which compare the results with Indapamide. Both the CM/1 and the Indapamide were administered orally after being suitably dissolved in the following solvent:
(§1) The controls were treated with an equal volume of solvent. The experiments were carried out on animals which had regularly fasted for at least 12 hours, but had free access to water.
(§2) The sodium and potassium in the urine were determined by a photometric method.
Finally, the effect on the new product of spontaneous diuresis was determined.
These investigations were carried out on 15 female Wistar rats having a body weight varying from 230 to 260 g, and divided at random into three groups of 5. The animals were kept in individual metabolic cages overnight for a period of 12 hours in order to collect the urine spontaneously excreted. One group was treated as usual with 1 ml/kg of solvent by means of a gastric probe, and the other two were treated respectively with 5 mg/kg of Indapamide and 5 mg/kg of CM/1. The sodium and potassium were analysed as usual in the urine collected.

male rats = assay: Diuretic and saluretic activity: excretion of a load of distilled water (TABLE 2); settings: 5 mg/kg oral + aqueous load
Method: (§3) Both the CM/1 and the Indapamide were administered orally after being suitably dissolved in the following solvent:
as §1, §2
The rats were then immediately placed in individual metabolic cages. The urine was collected over 4 hours. The quantity has been expressed in the usual manner as a percentage of the volume administered.
Sodium and potassium were also analysed, and these have been expressed as mEq/4h.
After two days, in the preceding manner, the same rats were treated with Indapamide, and after a further two days with the product CM/1. In the interval between one test and the other, the rats were housed and fed in the normal manner. The dose used for both compounds was the same as previously, i.e. 5 mg/kg.

female Wistar rats [2] = assay: Diuretic and saluretic activity: excretion of an aqueous saline load (TABLE 1); settings: 5 mg/kg oral
Method: as §3, §1, §2
The effect on the excretion of an aqueous saline load was first checked. 18 female Wistar rats were used divided into three groups, one of 8 and two of 5, and these were treated in the following manner:
GROUP A: CONTROLS 1 ml of solvent made up to 50 ml with 0.9% sodium chloride solution, administered by gastric probe, per kg of body weight (=50 ml/kg in terms of volume);
GROUP B: INDAPAMIDE 5 mg/kg in 1 ml/kg of solvent made up to 50 ml/kg with sodium chloride solution, administered by gastric probe;
GROUP C: CM/1,5 mg/kg using the same method as for the Indapamide.
The rats were placed immediately in individual metabolic cages for collecting the urine during the three hours subsequent to the load. The quantity of urine excreted is given as a percentage of the quantity administered. The sodium and potassium are expressed in mEq/3h.
Values of P less than 0.05 have been considered significant.

[3] = saline load, mean ± standard error, n = 5

## CC1Cc2ccccc2N1NC(=O)c1ccc(Cl)c(S(N)(=O)=O)c1 (stereo not drawn) [Indapamide, N-(3-sulphamyl-4-chlorobenzamido)-2-methylindoline, reference compound]
Female Wistar rats [1]
  diuretic action: marked diuretic action
  sodium and potassium excretion: increased
Female Wistar rats [1]; individual rats
  Excreted sodium/potassium ratio: 1.170 and 1.417 and 1.803 and 1.346 and 1.555
  ml of urine collected in 12 hours: 11.5 mL and 13.7 mL and 18.6 mL and 14.5 mL and 15.5 mL
  Potassium excretion: 4.560 mEq/12h and 3.356 mEq/12h and 3.760 mEq/12h and 5.776 mEq/12h and 4.352 mEq/12h
  Sodium excretion: 5.335 mEq/12h and 4.756 mEq/12h and 6.780 mEq/12h and 7.775 mEq/12h and 6.767 mEq/12h
Female Wistar rats [1]; mean ± standard error, n = 5
  Excreted sodium/potassium ratio: 1.4582 ± 0.106
  ml of urine collected in 12 hours: 14.76 ± 1.16 mL
  Potassium excretion: 4.3608 ± 0.413 mEq/12h
  Sodium excretion: 6.2826 ± 0.544 mEq/12h
Male rats
  diuretic and saluretic action: significant diuretic and saluretic action
Male rats; 4 h, average
  RATIO Na/K (sodium to potassium excreted): 1.6764
Male rats; individual rats
  Cumulative percent excretion at 1 hour from load: 25.8% and 35.7% and 0.0% and 27.6% and 51.6%
  Cumulative percent excretion at 2 hours from load: 83.9% and 92.8% and 42.9% and 82.8% and 101.7%
  Cumulative percent excretion at 3 hours from load: 116.1% and 107.2% and 85.8% and 110.4% and 121.1%
  Cumulative percent excretion at 4 hours from load: 138.7% and 107.2% and 114.4% and 110.4% and 140.5%
  Potassium excretion: 0.00998 mEq/4h and 0.00543 mEq/4h and 0.00814 mEq/4h and 0.00692 mEq/4h and 0.01579 mEq/4h
  Sodium excretion: 0.01808 mEq/4h and 0.00771 mEq/4h and 0.01403 mEq/4h and 0.01077 mEq/4h and 0.02694 mEq/4h
Male rats; mean of 5 rats
  Cumulative percent excretion at 1 hour from load: 28.14%
  Cumulative percent excretion at 2 hours from load: 80.82%
  Cumulative percent excretion at 3 hours from load: 108.12%
  Cumulative percent excretion at 4 hours from load: 122.24 ± 4.47%
  Potassium excretion: 0.009252 mEq/4h
  Sodium excretion: 0.01551 mEq/4h
Female Wistar rats [2]; individual rats
  Urine excretion of load in percent of quantity administered (cumulative excretion), 1 hour: 16.7% and 12.5% and 8.7% and 6.7%
  Urine excretion of load in percent of quantity administered (cumulative excretion), 2 hours: 50.0% and 37.5% and 26.1% and 30.8% and 52.2%
  Urine excretion of load in percent of quantity administered (cumulative excretion), 3 hours: 83.3% and 81.2% and 65.2% and 69.2% and 100.0%
Female Wistar rats [2]; mean ± standard error, n = 5
  Urine excretion of load in percent of quantity administered (cumulative excretion), 1 hour: 10.66 ± 1.77%
  Urine excretion of load in percent of quantity administered (cumulative excretion), 2 hours: 39.32 ± 5.15%
Female Wistar rats [2]; relative to the controls
  diuretic and saluretic effect: significant diuretic and saluretic effect relative to the controls
Female Wistar rats [2]; saline load
  ratio of the sodium to the potassium excreted during the 3 hours: 4.48
Female Wistar rats [2]; saline load, individual rats
  Potassium excretion: 0.36 mEq/3h and 0.38 mEq/3h and 0.28 mEq/3h and 0.31 mEq/3h and 0.33 mEq/3h
  Sodium excretion: 1.50 mEg/3h and 1.45 mEg/3h and 1.33 mEg/3h and 1.61 mEg/3h and 1.55 mEg/3h
Female Wistar rats [2]; [3]
  Potassium excretion: 0.332 ± 0.0177 mEq/3h
  Sodium excretion: 1.488 ± 0.047 mEg/3h
Female Wistar rats [2]; versus controls
  excreted sodium and potassium: significantly higher than the controls

— patent US4338331A, “Isoindoline derivative and a therapeutic composition thereof” (priority 1979, dated 1982)
